Data: patent publication US8946426B2, “Substituted bicyclic heterocyclic compounds as gamma secretase modulators” (Janssen Pharmaceuticals, Inc., priority 2009, dated 2015)

Tested on: mouse Notch2
Test: Notch cell-based assay (N2-CHO/DL-CHO co-culture, Dual-Glo luciferase, NICD production)
Settings: N2-CHO/DL-CHO co-culture 16 H; five-point curve 3 μM-0.3 nM
Source text: The Notch cell-based assay was based on the interaction of Notch and its ligand in a co-culture system and utilized the Dual-Glo Luciferase Assay System (Promega) to monitor NICD production. Two stable cell lines, N2-CHO and DL-CHO, were established to express full-length mouse Notch2 and Delta respectively. Cells that expressed mouse Notch were also transfected with two plasmids, pTP1-Luc and pCMV-RLuc, to express firefly and Renilla luciferase. Expression of firefly luciferase was under the control of TP1 promoter that responded to NICD activation.
N2-CHO cells were seeded at 1×10^5/well in 24-well plates the day before transfection. On the second day, cells were double transfected with 3 μg/well pTP1-Luc (expressing firefly luciferase) and 0.3 ng/well pCMV-RLuc (expressing Renilla luciferase). After 6 H incubation, transfected N2-CHO cells were washed and DL-CHO cells (2×10^5 cells/well) were added.
Compounds were pre-mixed with DL-CHO cell suspension in a five-point curve. Typically, compound treatment was performed in duplicate with a serial 1:10 dilution (3 μM-0.3 nM) in DMSO. The final concentration of DMSO in a given culture was 1%. Controls included non-transfected cells and transfected cells treated with a GSI or DMSO only. Luciferase assays were performed after 16 H co-culture and compound treatment.
The luciferase assay was carried out according to manufacture's instructions. Briefly, cells were washed with PBS (Phosphate Buffered Saline), lysed with Passive Lysis Buffer (Promega), and incubated at room temperature for 20 min. Lysates were mixed with Dual-Glo Luciferase Reagent and the firefly luciferase activity was measured by reading the luminescence signal in the EnVision 2101 Multilabel reader. Dual-Glo Stop & Glo Reagent was then added to each well and the Renilla luciferase signal was measured.

- average IC50 values from the Notch cell-based assay (luciferase assay readouts): non-inhibitory
Compound: Cc1ncc(-c2ccc(Nc3cccc4c3nc(-c3ccc(F)cc3)n4C(C)C)cn2)o1 [Compound 18]
